Source: patent publication US10519177B2, “Heterocyclic compounds and uses thereof” (Plexxikon Inc., priority 2013, dated 2019)

System: bromodomain
Assay: at least one of the bromodomain cell assays of Example 57
Format: cell-based
Conditions: at least one of the bromodomain cell assays described in Example 57; read-out: IC50 in at least one of the bromodomain cell assays

IC50, < 10 µM:
Cc1noc(C)c1-c1cnc2c(-c3ccc(C(=O)OC(C)C)cc3)cn([C@@H](c3ccccc3)c3ccccn3)c2c1 [P-0717, isopropyl 4-[6-(3,5-dimethylisoxazol-4-yl)-1-[(S)-phenyl(2-pyridyl)methyl]pyrrolo[3,2-b]pyridin-3-yl]benzoate]
Cc1noc(C)c1-c1cnc2c(-c3ccc(B(O)O)cc3)cn([C@@H](c3ccccc3)c3ccccn3)c2c1 [P-0718, [4-[6-(3,5-dimethylisoxazol-4-yl)-1-[(S)-phenyl(2-pyridyl)methyl]pyrrolo[3,2-b]pyridin-3-yl]phenyl]boronic acid]
Cc1noc(C)c1-c1cnc2c(-c3ccc([N+](=O)[O-])nc3)cn([C@@H](c3ccccc3)c3ccccn3)c2c1 [P-0719, 3,5-dimethyl-4-[3-(6-nitro-3-pyridyl)-1-[(S)-phenyl(2-pyridyl)methyl]pyrrolo[3,2-b]pyridin-6-yl]isoxazole]
Cc1noc(C)c1-c1cnc2c(-c3ccc(C#N)nc3)cn([C@@H](c3ccccc3)c3ccccn3)c2c1 [P-0720, 5-[6-(3,5-dimethylisoxazol-4-yl)-1-[(S)-phenyl(2-pyridyl)methyl]pyrrolo[3,2-b]pyridin-3-yl]pyridine-2-carbonitrile]
Cc1noc(C)c1-c1cnc2c(-c3cnn(C)c3)cn([C@@H](c3ccccc3)c3ccccn3)c2c1 [P-0721, 3,5-dimethyl-4-[3-(1-methylpyrazol-4-yl)-1-[(S)-phenyl(2-pyridyl)methyl]pyrrolo[3,2-b]pyridin-6-yl]isoxazole]
Cc1noc(C)c1-c1cnc2c(F)cn([C@H](c3ccccc3)c3ccccn3)c2c1 [P-0723, 4-[3-fluoro-1-[(R)-phenyl(2-pyridyl)methyl]pyrrolo[3,2-b]pyridin-6-yl]-3,5-dimethyl-isoxazole]
Cc1noc(C)c1-c1cnc2c(-c3ccc(CO)cc3)cn([C@H](c3ccccc3)c3ccccn3)c2c1 [P-0724, [4-[6-(3,5-dimethylisoxazol-4-yl)-1-[(R)-phenyl(2-pyridyl)methyl]pyrrolo[3,2-b]pyridin-3-yl]phenyl]methanol]
Cc1ccc(-c2cn([C@H](c3ccccc3)c3ccccn3)c3cc(-c4c(C)noc4C)cnc23)cc1 [P-0725, 3,5-dimethyl-4-[1-[(R)-phenyl(2-pyridyl)methyl]-3-(p-tolyl)pyrrolo[3,2-b]pyridin-6-yl]isoxazole]
COC(=O)c1ccc(-c2cn([C@H](c3ccccc3)c3ccccn3)c3cc(-c4c(C)noc4C)cnc23)cc1 [P-0726, methyl 4-[6-(3,5-dimethylisoxazol-4-yl)-1-[(R)-phenyl(2-pyridyl)methyl]pyrrolo[3,2-b]pyridin-3-yl]benzoate]
CCOC(=O)c1ccc(-c2cn([C@H](c3ccccc3)c3ccccn3)c3cc(-c4c(C)noc4C)cnc23)cc1 [P-0727, ethyl 4-[6-(3,5-dimethylisoxazol-4-yl)-1-[(R)-phenyl(2-pyridyl)methyl]pyrrolo[3,2-b]pyridin-3-yl]benzoate]
Cc1noc(C)c1-c1cnc2c(-c3ccc(C(=O)OC(C)C)cc3)cn([C@H](c3ccccc3)c3ccccn3)c2c1 [P-0728, isopropyl 4-[6-(3,5-dimethylisoxazol-4-yl)-1-[(R)-phenyl(2-pyridyl)methyl]pyrrolo[3,2-b]pyridin-3-yl]benzoate]
Cc1noc(C)c1-c1cnc2c(-c3ccc(B(O)O)cc3)cn([C@H](c3ccccc3)c3ccccn3)c2c1 [P-0729, [4-[6-(3,5-dimethylisoxazol-4-yl)-1-[(R)-phenyl(2-pyridyl)methyl]pyrrolo[3,2-b]pyridin-3-yl]phenyl]boronic acid]
Cc1noc(C)c1-c1cnc2c(-c3ccc([N+](=O)[O-])nc3)cn([C@H](c3ccccc3)c3ccccn3)c2c1 [P-0730, 3,5-dimethyl-4-[3-(6-nitro-3-pyridyl)-1-[(R)-phenyl(2-pyridyl)methyl]pyrrolo[3,2-b]pyridin-6-yl]isoxazole]
Cc1noc(C)c1-c1cnc2c(-c3ccc(C#N)nc3)cn([C@H](c3ccccc3)c3ccccn3)c2c1 [P-0731, 5-[6-(3,5-dimethylisoxazol-4-yl)-1-[(R)-phenyl(2-pyridyl)methyl]pyrrolo[3,2-b]pyridin-3-yl]pyridine-2-carbonitrile]
Cc1noc(C)c1-c1cnc2c(-c3cnn(C)c3)cn([C@H](c3ccccc3)c3ccccn3)c2c1 [P-0732, 3,5-dimethyl-4-[3-(1-methylpyrazol-4-yl)-1-[(R)-phenyl(2-pyridyl)methyl]pyrrolo[3,2-b]pyridin-6-yl]isoxazole]
Cc1noc(C)c1-c1cnc2[nH]cc(C(c3ccccn3)c3ccccn3)c2c1 [P-0733, 4-[3-[bis(2-pyridyl)methyl]-1H-pyrrolo[2,3-b]pyridin-5-yl]-3,5-dimethyl-isoxazole]
Cc1noc(C)c1-c1cnc2c(c1)c(C(c1ccccn1)c1ccccn1)cn2C(F)F [P-0734, 4-[3-[bis(2-pyridyl)methyl]-1-(difluoromethyl)pyrrolo[2,3-b]pyridin-5-yl]-3,5-dimethyl-isoxazole]
Cc1noc(C)c1-c1cnc2c(c1)c(C(c1ccccn1)c1ccccn1)cn2-c1ccc(C(=O)O)cc1 [P-0735, 4-[3-[bis(2-pyridyl)methyl]-5-(3,5-dimethylisoxazol-4-yl)pyrrolo[2,3-b]pyridin-1-yl]benzoic acid]
Cc1noc(C)c1-c1cnc2c(c1)c(C(c1ccccn1)c1ccccn1)cn2-c1ccc(CO)cc1 [P-0736, [4-[3-[bis(2-pyridyl)methyl]-5-(3,5-dimethylisoixazol-4-yl)pyrrolo[2,3-b]pyridin-1-yl]phenyl]methanol]
Cc1noc(C)c1-c1cnc2c(c1)c(C(c1ccccn1)c1ccccn1)cn2-c1ccc(C(=O)O)cn1 [P-0737, 6-[3-[bis(2-pyridyl)methyl]-5-(3,5-dimethylisoxazol-4-yl)pyrrolo[2,3-b]pyridin-1-yl]pyridine-3-carboxylic acid]
Cc1noc(C)c1-c1cnc2[nH]cc(C(c3ccccc3)c3ccccc3)c2c1 [P-0738, 4-(3-benzhydryl-1H-pyrrolo[2,3-b]pyridin-5-yl)-3,5-dimethyl-isoxazole]
Cc1noc(C)c1-c1cnc2c(c1)c(C(c1ccccc1)c1ccccc1)cn2C(F)F [P-0739, 4-[3-benzhydryl-1-(difluoromethyl)pyrrolo[2,3-b]pyridin-5-yl]-3,5-dimethyl-isoxazole]
Cc1noc(C)c1-c1cnc2c(c1)c(C(c1ccccc1)c1ccccc1)cn2-c1ccc(C(=O)O)cc1 [P-0740, 4-[3-benzhydryl-5-(3,5-dimethylisoxazol-4-yl)pyrrolo[2,3-b]pyridin-1-yl]benzoic acid]
Cc1noc(C)c1-c1cnc2c(c1)c(C(c1ccccc1)c1ccccc1)cn2-c1ccc(CO)cc1 [P-0741, [4-[3-benzhydryl-5-(3,5-dimethylisoxazol-4-yl)pyrrolo[2,3-b]pyridin-1-yl]phenyl]methanol]
Cc1noc(C)c1-c1cnc2c(c1)c(C(c1ccccc1)c1ccccc1)cn2-c1ccc(C(=O)O)cn1 [P-0742, 6-[3-benzhydryl-5-(3,5-dimethylisoxazol-4-yl)pyrrolo[2,3-b]pyridin-1-yl]pyridine-3-carboxylic acid]
Cc1noc(C)c1-c1ccc2c(-c3ccc(C(=O)O)cc3)cn(CC3CCC(F)(F)CC3)c2c1 [P-0745, 4-[1-[(4,4-difluorocyclohexyl)methyl]-6-(3,5-dimethylisoxazol-4-yl)indol-3-yl]benzoic acid]
COc1cc(-c2cn(CC3CCC(F)(F)CC3)c3cc(-c4c(C)noc4C)ccc23)ccc1C(=O)O [P-0746, 4-[1-[(4,4-difluorocyclohexyl)methyl]-6-(3,5-dimethylisoxazol-4-yl)indol-3-yl]-2-methoxy-benzoic acid]
Cc1noc(C)c1-c1ccc2c(-c3ccc(P(=O)(O)O)cc3)cn(CC3CCC(F)(F)CC3)c2c1 [P-0747, [4-[1-[(4,4-difluorocyclohexyl)methyl]-6-(3,5-dimethylisoxazol-4-yl)indol-3-yl]phenyl]phosphonic acid]
Cc1noc(C)c1-c1ccc2c(-c3ccc(C4(C(=O)O)CC4)cc3)cn(CC3CCC(F)(F)CC3)c2c1 [P-0748, 1-[4-[1-[(4,4-difluorocyclohexyl)methyl]-6-(3,5-dimethylisoxazol-4-yl)indol-3-yl]phenyl]cyclopropanecarboxylic acid]
Cc1noc(C)c1-c1ccc2c(-c3ccc(B(O)O)cc3)cn(CC3CCC(F)(F)CC3)c2c1 [P-0749, [4-[1-[(4,4-difluorocyclohexyl)methyl]-6-(3,5-dimethylisoxazol-4-yl)indol-3-yl]phenyl]boronic acid]
Cc1noc(C)c1-c1ccc2c(-c3ccc([N+](=O)[O-])nc3)cn(CC3CCC(F)(F)CC3)c2c1 [P-0750, 4-[1-[(4,4-difluorocyclohexyl)methyl]-3-(6-nitro-3-pyridyl)indol-6-yl]-3,5-dimethyl-isoxazol]
Cc1noc(C)c1-c1ccc2c(-c3ccc(C(=O)O)cc3)cn([C@@H](c3ccccc3)c3ccccn3)c2c1 [P-0751, 4-[6-(3,5-dimethylisoxazol-4-yl)-1-[(S)-phenyl(2-pyridyl)methyl]indol-3-yl]benzoic acid]
CCOC(=O)c1ccc(-c2cn([C@@H](c3ccccc3)c3ccccn3)c3cc(-c4c(C)noc4C)ccc23)cc1 [P-0752, ethyl 4-[6-(3,5-dimethylisoxazol-4-yl)-1-[(S)-phenyl(2-pyridyl)methyl]indol-3-yl]benzoate]
Cc1noc(C)c1-c1ccc2c(-c3ccc(CO)cc3)cn([C@@H](c3ccccc3)c3ccccn3)c2c1 [P-0753, [4-[6-(3,5-dimethylisoxazol-4-yl)-1-[(S)-phenyl(2-pyridyl)methyl]indol-3-yl]phenyl]methanol]
Cc1noc(C)c1-c1ccc2c(-c3ccc(C#N)nc3)cn([C@@H](c3ccccc3)c3ccccn3)c2c1 [P-0754, 5-[6-(3,5-dimethylisoxazol-4-yl)-1-[(S)-phenyl(2-pyridyl)methyl]indol-3-yl]pyridine-2-carbonitrile]
